Data set [1] concerns adenosine deaminase (ADA). The note with it: inactive metabolite 3′-deoxyinosine; Tsai et al. 2010; cited from earlier work.
Data set [2] concerns A375 melanoma or A549 lung cancer cell lines. Briefly: mRNA decrease in the cell line studies (RT-qPCR), cell line not specified. The settings on record: NUC-7738 10 uM vs DMSO. In kind it is cell-based. Here is the method: (§1) A375 melanoma cell lines and A549 lung cancer cell lines were treated with solvent-control DMSO or NUC-7738 (10 uM) for 72 hours, after which media supernatants were collected for either soluble PD-L1 analysis or EV isolation. In addition, adherent cells were collected for RNA and protein isolation.
To determine RNA expression of soluble transcript, cells were lysed and RNA isolated using the RNAeasy Kit (Qiagen, Cat #74136). This was then followed by RNA reverse transcription into cDNA using QuantiNova Reverse Transcription Kit (Qiagen, Cat #205413). Primers for each gene were designed using PrimerQuest™ (Integrated DNA Technologies) and ordered at 100 uM concentrations from IDT. The soluble PD-L1 transcript primer was designed to create an amplicon of about 100 bp size crossing the exon 4 and intron 4 junction.
RT-qPCR was carried out using the qPCRBIO SyGreen MasterMix kit (PCRBiossystems Cat #PB20.14-50) and the Rotor qene Q qPCR machine (Qiagen). Ct values were analysed using the Rotor qene Q Software. Fold change were calculated using the AACt values.
Background: Real-time PCR tracks product formation cycle by cycle.

The subject of data set [3] is sPD-L1, A375 melanoma or A549 lung cancer cell lines. The data set can be described thus: sPD-L1 in media supernatant in the cell line studies (sandwich ELISA), cell line not specified. In kind it is cell-based. The note with it: NUC-7738 10 uM vs DMSO. The protocol:
For sPDL1 analysis, a similar process was undertaken. Cells were grown in Corning® 100 mm TC-treated Culture Dish with DMEM, high glucose, GlutaMAX™ Supplement (ThermoFisher Cat #10566016) supplemented with 10% FBS and 1% Penicillin-Streptomycin (ThermoFisher Cat #15070063), with approximately 2×10^6 cells.
as §1
Patient plasma samples were centrifuged at 3000×g for 15 minutes to remove cellular debris. […]
For quantitative measurement of soluble PD-L1 in patient and in-vitro samples Quantikine® ELISA Human/Cynomolgus Monkey PD-L1/B7-H1 Immunoassay (R&D Systems Cat. #DB7H10) was used as per manufacturers recommendation. […]
In brief, the protocol included the preparation of the standard curve from the Human/Cynomolgus Monkey PD-L1/B7-H1 protein standard ranging from […]. […] The wells were read using a microplate reader set to 450 nm and 540 nm for wavelength correction to determine the optical density.
Analysis of the results included subtracting the 540 nm readings from 450 nm reading and subtracting blank, diluent only, sample readings. […]

Data set [4] deals with ExoPD-L1, A375 melanoma or A549 lung cancer cell lines. Briefly: ExoPD-L1 protein in exosomes from the cell line studies. In kind it is cell-based. The note with it: NUC-7738 10 uM vs DMSO. The protocol: For Extracellular Vesicle (EV, exosome) preparation, cells were cultured in T175 Nunc™ EasYFlask™ Cell Culture Flasks (ThermoFisher Cat #159910), approximately 50×10^6 cells. Cells were grown in DMEM, high glucose, GlutaMAX™ Supplement (ThermoFisher Cat #10566016) supplemented with 5% exosome free FBS and 1% Penicillin-Streptomycin (ThermoFisher Cat #15070063).
as §1
Isolation of exosomes from in-vitro samples involved growing cells in 5 separate T175 Nunc™ EasYFlask™ Cell Culture Flasks (ThermoFisher Cat #159910) which approximated to 50×10^6 cells. Cells were grown in DMEM, high glucose, GlutaMAX™ Supplement (ThermoFisher Cat #10566016) in addition, this was supplemented with exosome free FBS. […]
Analysis of PD-L1 expression in exosomes isolated from plasma samples was carried out using automated western blotting JESS system (BioTechne, ProteinSimples). […] The expression was determined by the area under the curve using Compass Software v 6.1 (ProteinSimple).

Data set [5] deals with exosomal PD-L1. Briefly: exosomal PD-L1 in plasma of patients treated with NUC-7738 (capillary-based immune probing, PD-L1/CD81). In kind it is in vivo, human. The settings on record: plasma exosomes; for PD-L1/CD81 values: 24 h Post C1. Here is the method: Patients were treated with NUC-7738 on days 1 and 8 of a 14-day cycle. Patient plasma samples were collected pre-dose, 24 hr after NUC-7738 dosage and the 24 hours post Cycle 2 (that is the second occasion at which patients received treatment).
Patient plasma samples were centrifuged at 3000×g for 15 minutes to remove cellular debris. Then, the supernatant was aliquoted in 250 μL measures and stored in−80° C. freezers. For exosomal isolation ExoQuick® ULTRA EV Isolation Kit for Serum and Plasma (System Biosciences Cat #EQULTRA-20A-1) according to manufacturer's protocol. In brief, 250 μL of plasma samples free of cellular debris was used and 67 μL ExoQuick Solution was added, followed by a 30 minute incubation period at 4° C. After that, the plasma sample and ExoQuick Solution mixture were centrifuged at 3000×g for 10 minutes. Then, carefully without disturbing the pellet, all of the supernatant was aspirated off, making sure no residual traces remained. Next, the pellet was resuspended in Buffer B provided, followed by the addition of Buffer A. The samples was homogenised in the buffer by carefully pipetting up and down until no clumps of the pellet were seen. The resin purification columns were conditioned by removing the storage buffer and washing it with Buffer B. The samples were added to the conditioned purification column and centrifuged at 1000×g for 30 seconds. The eluted samples were quantified for protein concentration using Qubit™ Protein and Protein Broad Range (BR) Assay Kits (Thermofisher Cat #A50668). Samples were then aliquoted according to the required amounts for the downstream applications and stored −80° C.
Analysis of PD-L1 expression in exosomes isolated from plasma samples was carried out using automated western blotting JESS system (BioTechne, ProteinSimples). The 12-230 kDa Separation Module of 25 capillaries kit (ProteinSimple, Cat #SM-W004) was used per manufacture protocol. Briefly, samples were prepared at the appropriate concentration using the kit master-mix and sample dilution buffer containing DT, samples were then denatured for 5 minutes at 95° C. All samples, primary antibodies and secondary antibodies were loaded into the plate provided. Anti-CD81 antibody [M38] (Abcam, Cat #ab79559) diluted at 1:100 and PD-L1 (E1L3N®) XP® Rabbit mAb (Cell Signalling, Cat #13684) diluted at 1:50 were used. Secondary antibodies used were from the anti-mouse chemiluminescence (ProteinSimple, Cat #DM002) and anti-rabbit near-infrared (NIR) (ProteinSimple, Cat #DM007) detection module, they were used at recommended dilution. The prepared plates and capillaries were then loaded onto the JESS, and sample run at the defaults settings. The expression was determined by the area under the curve using Compass Software v 6.1 (ProteinSimple).

Data set [6] relates to exosomal PD-L1. The data set is described as above. The note with it: for PD-L1/CD81 values: plasma exosomes, Pre C2 (15 days after initial cycle). In kind it is in vivo, human.
Setting [7] is: patient 001-002, Pre C1 (untreated) 0.044.
Setting [8] is: patient 001-019, Pre C1 (untreated) 0.039.
Where [9] appears, read: patient 002-002, Pre C1 (untreated) 0.035.
Where [10] appears, read: patient 003-008, Pre C1 (untreated) 0.045.

The structures appear in SMILES notation.

As for `Nc1ncnc2c1ncn2[C@@H]1O[C@H](CO)C[C@H]1O` [3′-dA, 3′-deoxyadenosine], in data set [1], the “metabolism after administration, in vivo” value is “quickly deaminated by adenosine deaminase (ADA), and rapidly metabolized to an inactive metabolite”.
Take `C[C@H](NP(=O)(OC[C@@H]1CC(O)[C@H](n2cnc3c(N)ncnc32)O1)Oc1ccccc1)C(=O)OCc1ccccc1` (stereo partly drawn) [NUC-7738, 3′-deoxyadenosine-5′-O-[phenyl(benzyloxy-L-alaninyl)] phosphate]: the “decrease of mRNA” value in data set [2] was “up to 40%”. The “time dependent decrease of sPD-L1 expression in the media supernatant” value in data set [3] is “up to 3 fold”. In addition, the “reduction of ExoPD-L1 protein” value in data set [4] came out at 50%. Further, the PD-L1/CD81 values in data set [5] (setting [7]) is 0.047; in data set [5] (setting [8]) it was 0.02; in data set [5] (setting [9]), 0.043; in data set [5] (setting [10]), 0.041; in data set [6] (setting [7]), 0.025; in data set [6] (setting [8]) it was 0.049. Also, the PD-L1/CD81 values in data set [6] (setting [9]) amounted to 0.023; in data set [6] (setting [10]), 0.029. The “time within which the reduction of the PD-L1/CD81 ratio is seen” value in data set [5] (patient 001-019) was at most 24 h. In data set [6] (preliminary studies, serum from 4 patients treated with NUC-7738), the “reductions in Exo-PD-L1 compared to pre-treatment levels” value is reported as at most 50%.

Source of the values: US20250144128A1, “CANCER TREATMENT” (Nucana plc, priority 2022, published 2025).
